These results are taken from ChEMBL document CHEMBL4673346, “Discovery of a benzimidazole series as the first highly potent and selective ACSL1 inhibitors” (Bioorg Med Chem Lett, 2021).

The target in assay [1] is T1, Long-chain-fatty-acid--CoA ligase 1 (Mus musculus, UniProt P41216).
T1 sequence (P41216 whole entry): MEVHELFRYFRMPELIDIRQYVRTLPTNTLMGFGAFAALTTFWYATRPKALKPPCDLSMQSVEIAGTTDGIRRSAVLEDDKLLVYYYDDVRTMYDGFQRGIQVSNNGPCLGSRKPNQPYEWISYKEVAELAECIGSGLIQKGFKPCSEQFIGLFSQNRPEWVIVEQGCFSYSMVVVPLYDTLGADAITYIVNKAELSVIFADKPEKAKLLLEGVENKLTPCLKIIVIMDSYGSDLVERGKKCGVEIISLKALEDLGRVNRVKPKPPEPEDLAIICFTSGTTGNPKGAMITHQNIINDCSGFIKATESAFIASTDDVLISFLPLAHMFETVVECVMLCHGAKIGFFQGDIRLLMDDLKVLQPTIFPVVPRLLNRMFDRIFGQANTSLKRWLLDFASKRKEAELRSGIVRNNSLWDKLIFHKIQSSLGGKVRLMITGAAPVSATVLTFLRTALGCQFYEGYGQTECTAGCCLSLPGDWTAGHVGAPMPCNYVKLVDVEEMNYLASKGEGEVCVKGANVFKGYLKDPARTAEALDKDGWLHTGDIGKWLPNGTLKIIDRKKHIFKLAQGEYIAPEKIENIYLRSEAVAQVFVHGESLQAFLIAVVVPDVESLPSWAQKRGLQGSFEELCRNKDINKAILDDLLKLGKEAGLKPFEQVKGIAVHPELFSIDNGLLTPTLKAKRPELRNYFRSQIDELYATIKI
The experiment in a line: Inhibition of recombinant mouse ACSL1 assessed as reduction in […] prodution incubated for 90 mins in presence of Coenzyme A, ATP and MgCl2 by MALDI-TOF MS analysis.

Assay [2] addresses T2, Long-chain-fatty-acid--CoA ligase 1 (Homo sapiens, UniProt P33121).
T2 sequence (P33121 whole entry): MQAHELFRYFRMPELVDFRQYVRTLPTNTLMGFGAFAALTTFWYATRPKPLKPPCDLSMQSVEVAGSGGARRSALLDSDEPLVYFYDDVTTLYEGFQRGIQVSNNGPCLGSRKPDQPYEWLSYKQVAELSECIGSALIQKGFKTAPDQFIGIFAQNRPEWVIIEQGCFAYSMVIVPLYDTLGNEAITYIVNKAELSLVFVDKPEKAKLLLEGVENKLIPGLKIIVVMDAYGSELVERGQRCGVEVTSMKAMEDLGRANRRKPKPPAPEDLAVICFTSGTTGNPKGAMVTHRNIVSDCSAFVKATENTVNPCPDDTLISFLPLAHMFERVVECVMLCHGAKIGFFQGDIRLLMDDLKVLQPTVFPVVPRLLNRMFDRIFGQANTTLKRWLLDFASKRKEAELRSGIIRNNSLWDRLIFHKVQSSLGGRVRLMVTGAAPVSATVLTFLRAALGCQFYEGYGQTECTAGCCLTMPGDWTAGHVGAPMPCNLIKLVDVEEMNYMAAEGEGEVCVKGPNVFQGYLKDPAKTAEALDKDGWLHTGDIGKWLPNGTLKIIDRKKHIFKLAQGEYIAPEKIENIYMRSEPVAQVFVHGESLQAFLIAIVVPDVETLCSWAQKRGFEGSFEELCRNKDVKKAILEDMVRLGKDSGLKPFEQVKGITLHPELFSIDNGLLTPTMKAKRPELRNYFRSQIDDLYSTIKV
The experiment in a line: Inhibition of recombinant human ACSL1 assessed as reduction in […] prodution incubated for 90 mins in presence of Coenzyme A, ATP and MgCl2 by MALDI-TOF MS analysis.

Assay [3] addresses T2, Long-chain-fatty-acid--CoA ligase 1. The assay can be described thus: Inhibition of ACSL1 (unknown origin) assessed as reduction in […] prodution incubated for 90 mins in presence of Coenzyme A, ATP and MgCl2 by MALDI-TOF MS analysis.

For orientation: IC50 means the concentration that gives 50% inhibition.

`Cn1c(Cc2cccc(C#N)c2)nc2cc(O[C@H]3CC[C@@H](C(=O)O)CC3)ccc21`: the IC50 in assay [1] was 22000 nM; in assay [2], 51000 nM.

For the molecule `Cc1cccc(Cc2cc3cc(O[C@H]4CC[C@@H](C(=O)O)CC4)ccc3n2C)c1`, the IC50 in assay [1] and in assay [2] was 400 nM each time.

Consider `O=c1c2ccccc2oc2ccc(OC[C@H]3CC[C@@H](C(=O)O)CC3)cc12`, for which the IC50 in assay [3] is more than 200000 nM.

On to `Cc1cccc(Cc2nc3cc(O[C@H]4CC[C@@H](C(=O)O)CC4)ccc3n2C(C)C)c1`, for which the IC50 in assay [1] and in assay [2] was more than 200000 nM each time.

`O=C(O)C[C@H]1CC[C@@H](Oc2ccc3oc4ccccc4c(=O)c3c2)CC1`: the IC50 in assay [3] was 18000 nM.

`Cc1cccc(Cc2nc3cc(O[C@H]4CC[C@@H](C(=O)O)CC4)ncc3n2C)c1`: the IC50 in assay [1] was found to be 46000 nM; in assay [2], 41000 nM.

Turning to `Cc1cccc(Cc2nc3nc(O[C@H]4CC[C@@H](C(=O)O)CC4)ccc3n2C)c1`, the figures for the IC50 in assay [1] and in assay [2] were 79 nM and 44 nM, respectively.

For the molecule `Cn1c(Cc2ccc3c(c2)OCC3)nc2cc(O[C@H]3CC[C@@H](C(=O)O)CC3)ccc21`, the IC50 in assay [1] was 36 nM; in assay [2] it was 13 nM.

Turning to `Cc1ccc(Cc2nc3cc(O[C@H]4CC[C@@H](C(=O)O)CC4)ccc3n2C)cc1`, the IC50 in assay [1] came out at 80 nM; in assay [2], 150 nM.

With `Cn1c(Cc2cccnc2)nc2cc(O[C@H]3CC[C@@H](C(=O)O)CC3)ccc21`, the IC50 was more than 200000 nM in assay [1] and 141000 nM in assay [2].

On to `O=c1c2ccccc2oc2ccc(O[C@H]3CC[C@H](C(=O)O)CC3)cc12`, for which the IC50 is 1400 nM in assay [1], 240 nM in assay [2] and more than 200000 nM in assay [3].

As to `Cc1cccc(Cn2nc3cc(O[C@H]4CC[C@@H](C(=O)O)CC4)ccc3c2C)c1`, the IC50 in assay [1] came to 53 nM; in assay [2], 45 nM.

Turning to `Cn1c(Cc2cccc(C(F)(F)F)c2)nc2cc(O[C@H]3CC[C@@H](C(=O)O)CC3)ccc21`, the values for the IC50 in assay [1] and in assay [2] were 86 nM and 190 nM, respectively.

On to `Cc1cccc(Cc2nc3cc(O[C@H]4CC[C@@H](C(N)=O)CC4)ccc3n2C)c1`, for which the IC50 in assay [1] was 190 nM; in assay [2], 950 nM.

`Cc1cccc(Cc2nc3c(Cl)c(O[C@H]4CC[C@@H](C(=O)O)CC4)ccc3n2C)c1`: the IC50 in assay [1] is 56000 nM; in assay [2] it was 61000 nM.

For the molecule `Cc1cccc(Cc2nc3cc(O[C@H]4CC[C@@H](c5nnn[nH]5)CC4)ccc3n2C)c1`, the results for the IC50 in assay [1] and in assay [2] were 25 nM and 34 nM, respectively.

Turning to `Cn1c(Cc2ccc3c(c2)OCC3)nc2cc(O[C@H]3CC[C@@](F)(c4nnn[nH]4)CC3)ccc21`, the IC50 in assay [1] is 15 nM; in assay [2], 3 nM.

For `Cc1ccccc1Cc1nc2cc(O[C@H]3CC[C@@H](C(=O)O)CC3)ccc2n1C`, the IC50 is 5400 nM in assay [1] and 7800 nM in assay [2].

Turning to `Cc1cccc(Cc2nc3cc(O[C@H]4CC[C@@H](C(=O)O)CC4)c(Cl)cc3n2C)c1`, the values for the IC50 in assay [1] and in assay [2] were 100 nM and 47 nM, respectively.

In the case of `Cc1cccc(COc2nc3cc(O[C@H]4CC[C@@H](C(=O)O)CC4)ccc3n2C)c1`, the IC50 in assay [1] is 8100 nM; in assay [2], 17000 nM.

Turning to `Cc1cccc(Cc2nc3cc(O[C@H]4CC[C@@H](C(=O)O)CC4)ccc3o2)c1`, the IC50 in assay [1] turned out to be 140 nM; in assay [2], 39 nM.

Consider `Cc1cccc(Cc2nc3cc(O[C@H]4CC[C@@](F)(c5nnn[nH]5)CC4)ccc3n2C)c1`, for which the IC50 in assay [1] and in assay [2] was 13 nM each time.

For `Cc1cccc(Cc2nc3cc(O[C@H]4CC[C@@H](C(=O)O)CC4)cc(Cl)c3n2C)c1`, the IC50 in assay [1] is 170 nM; in assay [2], 28 nM.

As to `O=c1c2ccccc2oc2ccc(OC[C@H]3CC[C@H](C(=O)O)CC3)cc12`, in assay [3], the IC50 is more than 200000 nM.

For the molecule `O=C(O)c1ccc(Oc2ccc3oc4ccccc4c(=O)c3c2)cc1`, in assay [3], the IC50 was more than 200000 nM.

Take `Cc1cccc(C(=O)c2nc3cc(O[C@H]4CC[C@@H](C(=O)O)CC4)ccc3n2C)c1`: the IC50 in assay [2] is more than 200000 nM.

Regarding `O=C(O)[C@H]1CC[C@@H](Oc2ccc3c(c2)Cc2ccccc2O3)CC1`, the IC50 in assay [1] was 4000 nM; in assay [2], 4600 nM.

As to `Cc1cccc(Cc2c(C(N)=O)c3cc(O[C@H]4CC[C@@H](C(=O)O)CC4)ccc3n2C)c1`, the IC50 was 440 nM in assay [1] and 600 nM in assay [2].

Turning to `Cc1cccc(Cc2c(C#N)c3cc(O[C@H]4CC[C@@H](C(=O)O)CC4)ccc3n2C)c1`, the IC50 stood at 600 nM in assay [1] and 1900 nM in assay [2].

Regarding `Cc1cccc(Cc2nc3cc(O[C@H]4CC[C@@H](c5noc(=O)[nH]5)CC4)ccc3n2C)c1`, the IC50 came out at 100 nM in assay [1] and 47 nM in assay [2].

Turning to `O=C(O)[C@H]1CC[C@@H](Oc2ccc3oc(-c4ccccc4)nc3c2)CC1`, the IC50 in assay [1] was 59000 nM; in assay [2], 4400 nM.

Regarding `Cc1cccc(Oc2nc3cc(O[C@H]4CC[C@@H](C(=O)O)CC4)ccc3n2C)c1`, the IC50 came to 21000 nM in assay [1] and 78000 nM in assay [2].

`O=C(O)C[C@H]1CC[C@H](Oc2ccc3oc4ccccc4c(=O)c3c2)CC1`: the IC50 in assay [3] is more than 200000 nM.

As to `Cc1cccc(Cc2nc3ccc(O[C@H]4CC[C@@H](C(=O)O)CC4)cc3n2C)c1`, the 50% inhibitory concentration (IC50) in assay [1] and in assay [2] was more than 200000 nM throughout.
